Assays:
Assay type in all cases: biochemical
JAK3 = biological target: T1, JAK3 (Homo sapiens, UniProt P52333); experiment: Functional assay of protein Janus kinases (Caliper mobility shift), JAK3; settings: ATP 8 μM, incubation 30 min; read-out: JAK3 enzymatic activity (IC50) score
T1 construct: purchased Carna Biosciences 08-046
Method: (§1) The functional assays of protein Janus kinases were carried out in 384-well plates using a final volume of 30 μl. […] The reaction was reads in a “Caliper EzReader LabChip 3000” (Caliper, Hopkinton, Mass.) reader, based on electrophoretic mobility of the fluorescent substrate and the phosphorylated product.
(§2) The inhibition percentages were calculated by comparison between control reactions, for 100% of inhibition and reactions with only DMSO for 0% of inhibition.

JAK2 = biological target: T2, JAK2 (Homo sapiens, UniProt O60674); experiment: Functional assay of protein Janus kinases (Caliper mobility shift), JAK2; settings: ATP 300 μM, incubation 30 min; read-out: JAK2 enzymatic activity (IC50) score
T2 construct: purchased Carna Biosciences 08-045
T2 sequence (O60674 826-1132 limits assumed): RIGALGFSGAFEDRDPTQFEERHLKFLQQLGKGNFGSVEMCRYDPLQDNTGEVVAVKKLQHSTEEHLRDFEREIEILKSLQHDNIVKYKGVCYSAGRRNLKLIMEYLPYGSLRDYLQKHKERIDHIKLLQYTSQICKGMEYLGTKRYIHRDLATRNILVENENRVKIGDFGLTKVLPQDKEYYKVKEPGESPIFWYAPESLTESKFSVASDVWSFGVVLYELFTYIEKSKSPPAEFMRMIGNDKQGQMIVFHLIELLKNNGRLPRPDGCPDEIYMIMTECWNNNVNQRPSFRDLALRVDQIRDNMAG
Method: as §1, §2

TYK2 = biological target: T3, TYK2 (Homo sapiens, UniProt P29597); experiment: Functional assay of protein Janus kinases (Caliper mobility shift), TYK2; settings: ATP 20 μM, incubation 45 min; read-out: TYK2 enzymatic activity (IC50) score
T3 construct: purchased Carna Biosciences 08-147
T3 sequence (P29597 871-1187 limits assumed): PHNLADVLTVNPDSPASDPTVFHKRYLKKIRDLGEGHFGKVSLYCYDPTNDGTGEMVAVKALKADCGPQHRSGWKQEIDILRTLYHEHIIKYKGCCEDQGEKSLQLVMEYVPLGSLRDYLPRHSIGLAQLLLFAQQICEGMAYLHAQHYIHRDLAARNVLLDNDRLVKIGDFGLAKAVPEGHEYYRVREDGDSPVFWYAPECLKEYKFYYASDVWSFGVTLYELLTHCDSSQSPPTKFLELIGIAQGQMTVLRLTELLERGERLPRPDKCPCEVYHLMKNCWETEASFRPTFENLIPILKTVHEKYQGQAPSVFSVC
Method: as §1, §2

JAK1 = biological target: T4, JAK1 (Homo sapiens, UniProt P23458); experiment: Functional assay of protein Janus kinases (Caliper mobility shift), JAK1; settings: ATP 100 μM, incubation 150 min; read-out: JAK1 enzymatic activity (IC50) score
T4 construct: purchased Carna Biosciences 08-144
T4 sequence (P23458 850-1154 limits assumed): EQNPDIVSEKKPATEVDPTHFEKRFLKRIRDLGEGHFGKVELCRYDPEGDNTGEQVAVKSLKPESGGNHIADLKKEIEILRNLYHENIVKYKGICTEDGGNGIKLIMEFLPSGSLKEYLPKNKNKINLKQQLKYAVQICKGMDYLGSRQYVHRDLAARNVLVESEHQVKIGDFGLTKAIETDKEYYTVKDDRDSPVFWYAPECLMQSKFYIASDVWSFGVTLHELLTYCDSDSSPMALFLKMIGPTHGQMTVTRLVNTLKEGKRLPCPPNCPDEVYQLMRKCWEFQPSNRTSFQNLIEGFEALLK
Method: as §1, §2

T1 sequence (P52333 795-1124 limits assumed): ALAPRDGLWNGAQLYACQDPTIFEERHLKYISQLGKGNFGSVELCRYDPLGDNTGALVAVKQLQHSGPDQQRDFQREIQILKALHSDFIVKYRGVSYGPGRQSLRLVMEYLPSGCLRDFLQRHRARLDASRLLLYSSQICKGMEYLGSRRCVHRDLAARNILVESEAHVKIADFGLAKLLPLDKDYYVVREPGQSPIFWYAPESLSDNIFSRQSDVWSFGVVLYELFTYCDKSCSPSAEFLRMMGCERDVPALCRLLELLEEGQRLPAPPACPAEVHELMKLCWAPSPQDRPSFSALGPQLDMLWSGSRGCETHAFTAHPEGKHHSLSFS

Structure (SMILES) | IC50 (JAK3) [µM] | IC50 (JAK2) [µM] | IC50 (TYK2) [µM] | IC50 (JAK1) [µM]
CN1CCC(NC(=O)c2cccn3c(=O)c4cc(C5CC5)ccc4nc23)CC1 [Example 3, 2-cyclopropyl-N-(1-methylpiperidin-4-yl)-11-oxo-11H-pyrido[2,1-b]quinazoline-6-carboxamide] | 0.1 to 1 | > 1 | > 1 | > 1
O=C(NC1CCOCC1)c1cccn2c(=O)c3cc(C4CC4)ccc3nc12 [Example 4, 2-cyclopropyl-11-oxo-N-(tetrahydro-2H-pyran-4-yl)-11H-pyrido[2,1-b]quinazoline-6-carboxamide] | 0.1 to 1 | > 1 | < 0.1 | > 1
CC1COCCC1NC(=O)c1cccn2c(=O)c3cc(C4CC4)ccc3nc12 (centres unmarked) [Example 5, 2-cyclopropyl-N-(3-methyltetrahydro-2H-pyran-4-yl)-11-oxo-11H-pyrido[2,1-b]quinazoline-6-carboxamide] | < 0.1 | > 1 | < 0.1 | > 1
C[C@]1(O)CC[C@H](NC(=O)c2cccn3c(=O)c4cc(C5CC5)ccc4nc23)CC1 [Example 6, 2-cyclopropyl-N-((1R,4R)-4-hydroxy-4-methylcyclohexyl)-11-oxo-11H-pyrido[2,1-b]quinazoline-6-carboxamide] | < 0.1 | > 1 | < 0.1 | > 1
O=C(N[C@H]1CC[C@H](O)CC1)c1cccn2c(=O)c3cc(C4CC4)ccc3nc12 [Example 7, 2-cyclopropyl-N-((1R,4R)-4-hydroxycyclohexyl)-11-oxo-11H-pyrido[2,1-b]quinazoline-6-carboxamide] | < 0.1 | > 1 | 0.1 to 1 | > 1
O=C(NC1CCCCC1O)c1cccn2c(=O)c3cc(C4CC4)ccc3nc12 (centres unmarked) [Example 8, 2-cyclopropyl-N-(2-hydroxycyclohexyl)-11-oxo-11H-pyrido[2,1-b]quinazoline-6-carboxamide] | 0.1 to 1 | > 1 | < 0.1 | > 1
O=C(N[C@@H]1CCCC[C@H]1O)c1cccn2c(=O)c3cc(C4CC4)ccc3nc12 [Example 9, 2-cyclopropyl-N-((1R,2R)-2-hydroxycyclohexyl)-11-oxo-11H-pyrido[2,1-b]quinazoline-6-carboxamide] | 0.1 to 1 | > 1 | > 1 | > 1
O=C(NC1CCOC1)c1cccn2c(=O)c3cc(C4CC4)ccc3nc12 (centres unmarked) [Example 14, 2-cyclopropyl-11-oxo-N-(tetrahydrofuran-3-yl)-11H-pyrido[2,1-b]quinazoline-6-carboxamide] | 0.1 to 1 | > 1 | < 0.1 | > 1
O=C(NC1CCC(F)(F)CC1)c1cccn2c(=O)c3cc(C4CC4)ccc3nc12 [Example 15, 2-cyclopropyl-N-(4,4-difluorocyclohexyl)-11-oxo-11H-pyrido[2,1-b]quinazoline-6-carboxamide] | < 0.1 | > 1 | 0.1 to 1 | > 1
O=C(NC1CCCC1)c1cccn2c(=O)c3cc(O)ccc3nc12 [Example 18, N-cyclopentyl-2-hydroxy-11-oxo-11H-pyrido[2,1-b]quinazoline-6-carboxamide] | 0.1 to 1 | > 1 | < 0.1 | > 1
O=C(NC1CCCCC1)c1cccn2c(=O)c3cc(F)ccc3nc12 [Example 24, N-cyclohexyl-2-fluoro-11-oxo-11H-pyrido[2,1-b]quinazoline-6-carboxamide] | 0.1 to 1 | > 1 | 0.1 to 1 | > 1
O=C(NC1CCCC1)c1cccn2c(=O)c3cc(Br)ccc3nc12 [Example 25, 2-bromo-N-cyclopentyl-11-oxo-11H-pyrido[2,1-b]quinazoline-6-carboxamide] | < 0.1 | > 1 | < 0.1 | > 1
O=C(NC1CCCCC1)c1cccn2c(=O)c3cc(Br)ccc3nc12 [Example 26, 2-bromo-N-cyclohexyl-11-oxo-11H-pyrido[2,1-b]quinazoline-6-carboxamide] | 0.1 to 1 | > 1 | 0.1 to 1 | > 1
CN1CCN(c2ccc3nc4c(C(=O)NC5CCCC5)cccn4c(=O)c3c2)CC1 [Example 35, N-cyclopentyl-2-(4-methylpiperazin-1-yl)-11-oxo-11H-pyrido[2,1-b]quinazoline-6-carboxamide] | < 0.1 | > 1 | 0.1 to 1 | > 1
CN1CCN(c2ccc3nc4c(C(=O)N[C@H]5CCCC[C@H]5O)cccn4c(=O)c3c2)CC1 [Example 37, N-((1S,2R)-2-hydroxycyclohexyl)-2-(4-methylpiperazin-1-yl)-11-oxo-11H-pyrido[2,1-b]quinazoline-6-carboxamide] | 0.1 to 1 | – | < 0.1 | –

The next lines start with the values.

IC50 (JAK3) [µM] | IC50 (JAK2) [µM] | IC50 (TYK2) [µM] | IC50 (JAK1) [µM] | Structure (SMILES)
< 0.1 | > 1 | < 0.1 | > 1 | O=C(N[C@H]1CCCC[C@H]1O)c1cccn2c(=O)c3cc(C4CC4)ccc3nc12 [Example 10, 2-cyclopropyl-N-((1S,2R)-2-hydroxycyclohexyl)-11-oxo-11H-pyrido[2,1-b]quinazoline-6-carboxamide]
< 0.1 | > 1 | 0.1 to 1 | > 1 | O=C(N[C@@H]1CCCC[C@@H]1O)c1cccn2c(=O)c3cc(C4CC4)ccc3nc12 [Example 11, 2-cyclopropyl-N-((1R,2S)-2-hydroxycyclohexyl)-11-oxo-11H-pyrido[2,1-b]quinazoline-6-carboxamide]
0.1 to 1 | > 1 | 0.1 to 1 | > 1 | O=C(N[C@H]1CCCC[C@@H]1O)c1cccn2c(=O)c3cc(C4CC4)ccc3nc12 [Example 12, 2-cyclopropyl-N-((1S,2S)-2-hydroxycyclohexyl)-11-oxo-11H-pyrido[2,1-b]quinazoline-6-carboxamide]
0.1 to 1 | > 1 | 0.1 to 1 | > 1 | O=C(N[C@H]1CCCC[C@H]1O)c1cccn2c(=O)c3cc(Br)ccc3nc12 [Example 27, 2-bromo-N-((1S,2R)-2-hydroxycyclohexyl)-11-oxo-11H-pyrido[2,1-b]quinazoline-6-carboxamide]
0.1 to 1 | > 1 | 0.1 to 1 | > 1 | O=C(NC1CCCCC1)c1cccn2c(=O)c3cc(-c4ccccc4)ccc3nc12 [Example 28, N-cyclohexyl-11-oxo-2-phenyl-11H-pyrido[2,1-b]quinazoline-6-carboxamide]
0.1 to 1 | > 1 | < 0.1 | > 1 | O=C(NC1CCCC1)c1cccn2c(=O)c3cc(-c4ccncc4)ccc3nc12 [Example 32, N-cyclopentyl-11-oxo-2-(pyridin-4-yl)-11H-pyrido[2,1-b]quinazoline-6-carboxamide]
0.1 to 1 | > 1 | 0.1 to 1 | > 1 | O=C(N[C@H]1CCCC[C@H]1O)c1cccn2c(=O)c3cc(-c4ccncc4)ccc3nc12 [Example 34, N-((1S,2R)-2-hydroxycyclohexyl)-11-oxo-2-(pyridin-4-yl)-11H-pyrido[2,1-b]quinazoline-6-carboxamide]

Source: US11021479B2, “Pyridoquinazoline derivatives useful as protein kinase inhibitors” (ONCOSTELLAE, S.L., priority 2017, dated 2021)
